Experimental data published in patent US20250136576A1, “Heterocyclic Compounds and Uses Thereof” (ACEA Therapeutics, Inc., priority 2021, published 2025).

What follows are compounds tested on KM12-luc cells (assay: Cell proliferation and growth inhibition assay (CCK-8) in KM12-luc). Conditions: KM12-Luc, 72 h, KM12-luc cells, treated with test compounds for 72 hrs, CCK-8 viability; read-out: NTRK IC50 in KM12-luc.
Type: cell-based
How it was run: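 Cells were grown at 37 °C, 5% CO2 with 10% FBS: MV-4-11 in IMDM, H1975 in RPMI 1640, KM12-luc in DMEM. Viability was read by CCK-8 (1-4 hrs reagent incubation, absorbance at OD450). IC50 came from a non-linear sigmoidal dose-response fit.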
CN(C)CCN(C)c1cc(F)c(Nc2ncc(C(F)(F)F)c(-c3c[nH]c4c(F)cccc34)n2)cc1N [Compound 339, N^1-(2-(dimethylamino)ethyl)-5-fluoro-N^4-(4-(7-fluoro-1H-indol-3-yl)-5-(trifluoromethyl)pyrimidin-2-yl)-N^1-methylbenzene-1,2,4-triamine] gave an IC50 of 75.2 nM. For Cc1cccc2c(-c3nc(Nc4ccc(N5CC[C@@H](N(C)C)C5)c(N)c4)ncc3Cl)c[nH]c12 [Compound R-425, (R)—N^1-(5-chloro-4-(7-methyl-1H-indol-3-yl)pyrimidin-2-yl)-4-(3-(dimethylamino)pyrrolidin-1-yl)benzene-1,3-diamine], the IC50 was 11.3 nM. For CC(=O)Nc1cc(Nc2ncc(Cl)c(-c3c[nH]c4ccccc34)n2)ccc1NC(=O)CCN(C)C [Compound 394a, N-(2-acetamido-4-((5-chloro-4-(1H-indol-3-yl)pyrimidin-2-yl)amino)phenyl)-3-(dimethylamino)propanamide], the IC50 was 29.1 nM. In the case of CCN(CCN(C)C)c1ccc(Nc2ncc(C(F)(F)F)c(-c3c[nH]c4ccccc34)n2)cc1N [Compound 301, N^4-(4-(1H-indol-3-yl)-5-(trifluoromethyl)pyrimidin-2-yl)-N^1-(2-(dimethylamino)ethyl)-N-ethylbenzene-1,2,4-triamine], the IC50 is reported as 75.4 nM. In the case of CC(=O)Nc1cc(Nc2nc(-c3cn(C)c4ccccc34)c3occc3n2)cc(F)c1N(C)CCN(C)C [Compound 256b, N-(2-((2-(dimethylamino)ethyl) (methyl)amino)-3-fluoro-5-((4-(1-methyl-1H-indol-3-yl)furo[3,2-d]pyrimidin-2-yl)amino)phenyl) acetamide], the IC50 is reported as 748 nM. COc1c(N)nc(Nc2ccc(N(C)CCN(C)C)c(N)c2)nc1-c1cn(C)c2ccccc12 [Compound 294, N^4-(4-amino-5-methoxy-6-(1-methyl-1H-indol-3-yl)pyrimidin-2-yl)-N^1-(2-(dimethylamino)ethyl)-N^1-methylbenzene-1,2,4-triamine] was tested, and the IC50 was 167 nM. With CN(C)CCN(C)c1ccc(Nc2ncc(C(F)(F)F)c(-c3c[nH]c4ccc(F)cc34)n2)cc1N [Compound 322, N^1-(2-(dimethylamino)ethyl)-N^4-(4-(5-fluoro-1H-indol-3-yl)-5-(trifluoromethyl)pyrimidin-2-yl)-N^1-methylbenzene-1,2,4-triamine] the IC50 was 8.3 nM. Compound Cc1cccc2c(-c3nc(Nc4ccc(N(C)CCN(C)C)c(N)c4)ncc3Cl)cn(C)c12 [Compound 428, N^4-(5-chloro-4-(1,7-dimethyl-1H-indol-3-yl)pyrimidin-2-yl)-N^1-(2-(dimethylamino)ethyl)-N^1-methylbenzene-1,2,4-triamine] has an IC50 of 46.4 nM. For CNc1cc(Nc2ncc(OC)c(-c3cn(C)nc3C)n2)ccc1N(C)CCN(C)C [Compound 290, N^4-(4-(1,3-dimethyl-1H-pyrazol-4-yl)-5-methoxypyrimidin-2-yl)-N1-(2-(dimethylamino)ethyl)-N^1,N^2-dimethylbenzene-1,2,4-triamine], the IC50 was > 10000 nM. CNc1cc(Nc2ncc(F)c(-c3c[nH]c4ccccc34)n2)ccc1N(C)CCN(C)C [Compound 260, N^1-(2-(dimethylamino)ethyl)-N^4-(5-fluoro-4-(1H-indol-3-yl)pyrimidin-2-yl)-N^1,N^2-dimethylbenzene-1,2,4-triamine] gave an IC50 of 145 nM. For CC(=O)Nc1cc(Nc2ncc(C(F)(F)F)c(-c3cn(C)c4c(F)cccc34)n2)ccc1N(CCN(C)C)C(C)=O [Compound 350, N-(2-acetamido-4-((4-(7-fluoro-1-methyl-1H-indol-3-yl)-5-(trifluoromethyl)pyrimidin-2-yl)amino)phenyl)-N-(2-(dimethylamino)ethyl)acetamide], the IC50 was 126 nM. CC(=O)Nc1cc(Nc2ncc(F)c(-c3cn(C)c4ccc(C)cc34)n2)ccc1N(C)CCN(C)C [Compound 270, N-(5-((4-(1,5-dimethyl-1H-indol-3-yl)-5-fluoropyrimidin-2-yl)amino)-2-((2-(dimethylamino)ethyl)(methyl)amino)phenyl)acetamide] gave an IC50 of 1600 nM.

Same assay, conditions: KM12-luc cells, treated with test compounds for 72 hrs, CCK-8 viability; read-out: NTRK IC50 in KM12-luc
CC(=O)Nc1cc(Nc2ncc(Cl)c(-c3c[nH]c4ccccc34)n2)ccc1N(C)CCN(C)C [Compound 440] showed an IC50 of 7 nM.
